Source: ChEMBL document CHEMBL4266049, “A Steroid-Type Antioxidant Targeting the Keap1/Nrf2/ARE Signaling Pathway from the Soft Coral Dendronephthya gigantea” (J Nat Prod, 2018)
Calls of active or inactive are those of the source. No cut-off for these calls is given here.

Key:
PC-12 [1] = test: Cytoprotective activity against H2O2-induced oxidative injury in rat PC12 cells assessed as […] in cell viability at 10 uM pretreated for 24 hrs followed by 350 uM H2O2 challenge measured after 24 hrs by MTT assay; type: functional, cell-based
PC-12 [2] = test: Cytotoxicity against rat PC12 cells assessed as reduction in cell viability at 10 uM after 24 hrs by MTT assay; type: cell-based; conditions: pc-12, 24 h
PC-12 [3] = test: Cytoprotective activity against H2O2-induced oxidative injury in rat PC12 cells assessed as […] in cell viability at 10 uM pretreated for 24 hrs followed by 500 uM H2O2 challenge measured after 24 hrs by MTT assay; type: functional, cell-based
PC-12 [4] = test: Cytoprotective activity against H2O2-induced oxidative injury in rat PC12 cells assessed as increase in colony formation at 5 uM pretreated for 24 hrs followed by H2O2 challenge by crystal violet staining based assay; type: functional, cell-based
PC-12 [5] = test: Cytoprotective activity against H2O2-induced oxidative injury in rat PC12 cells assessed as inhibition of MDA production at 10 uM pretreated for 24 hrs followed by H2O2 challenge measured after 16 hrs; type: functional, cell-based
PC-12 [6] = test: Cytoprotective activity against H2O2-induced oxidative injury in rat PC12 cells assessed as reduction in intracellular reactive oxygen species formation at 10 uM pretreated for 24 hrs followed by H2O2 challenge measured after 3 hrs by DCFH-DA dye based fluorescence microscopic analysis; type: functional, cell-based
[7] = biological target: T1, KEAP1/NRF2 (Rattus norvegicus) (UniProt O54968+P57790); test: Inhibition of Keap1/Nrf2 signaling in rat PC12 cells assessed as induction of ARE by measuring increase in HO-1 expression at 10 uM after 24 hrs by Western blot analysis; type: cell-based
PC-12 [8] = test: Cytoprotective activity against H2O2-induced oxidative injury in rat PC12 cells assessed as cell viability at 10 uM pretreated for 24 hrs followed by 350 uM H2O2 challenge measured after 24 hrs by MTT assay (reference value: 60%); type: functional
PC-12 [9] = test: Cytoprotective activity against H2O2-induced oxidative injury in rat PC12 cells assessed as increase in colony formation at 1 to 2 uM pretreated for 24 hrs followed by H2O2 challenge by crystal violet staining based assay; type: functional, cell-based
PC-12 [10] = test: Cytoprotective activity against H2O2-induced oxidative injury in rat PC12 cells assessed as decrease in LDH release after 24 hrs; type: functional, cell-based
PC-12 [11] = test: Cytoprotective activity against H2O2-induced oxidative injury in rat PC12 cells assessed as inhibition of MDA production pretreated for 24 hrs followed by H2O2 challenge measured after 16 hrs; type: functional, cell-based
PC-12 [12] = test: Cytoprotective activity against H2O2-induced oxidative injury in rat PC12 cells assessed as reduction in intracellular reactive oxygen species formation pretreated for 24 hrs followed by H2O2 challenge measured after 3 hrs by DCFH-DA dye based fluorescence microscopic analysis; type: functional, cell-based
[13] = biological target: T1, KEAP1/NRF2 (Rattus norvegicus); test: Inhibition of Keap1/Nrf2 signaling in rat PC12 cells assessed as induction of nuclear translocation at 10 uM after 6 hrs by DAPI staining based fluorescence microscopic analysis; type: cell-based
[14] = biological target: T1, KEAP1/NRF2 (Rattus norvegicus); test: Inhibition of Keap1/Nrf2 signaling in rat PC12 cells assessed as induction of ARE by measuring increase in HO-1 expression after 24 hrs by Western blot analysis; type: cell-based
PC-12 [15] = test: Cytoprotective activity against H2O2-induced oxidative injury in rat PC12 cells harboring siRNA assessed as increase in cell viability at 10 uM pretreated for 24 hrs followed by H2O2 challenge measured after 24 hrs by MTT assay; type: functional, cell-based
PC-12 [16] = test: Cytoprotective activity against H2O2-induced oxidative injury in rat PC12 cells harboring siRNA assessed as increase in colony formation at 2 uM pretreated for 24 hrs followed by H2O2 challenge by crystal violet staining based assay; type: functional, cell-based
PC-12 [17] = test: Cytoprotective activity against H2O2-induced oxidative injury in rat PC12 cells harboring Nrf2 siRNA assessed as increase in cell viability at 10 uM pretreated for 24 hrs followed by H2O2 challenge measured after 24 hrs by MTT assay; type: functional, cell-based
PC-12 [18] = test: Cytoprotective activity against H2O2-induced oxidative injury in rat PC12 cells harboring Nrf2 siRNA assessed as increase in colony formation at 2 uM pretreated for 24 hrs followed by H2O2 challenge by crystal violet staining based assay; type: functional, cell-based

| SMILES | Activity (PC-12 [1]) | Activity (PC-12 [2]) | further results |
| --- | --- | --- | --- |
| CC(C)CCC[C@@H](C)[C@H]1CC[C@H]2[C@@H]3C(=O)C=C4C[C@@H](O)CC[C@]4(C)[C@H]3CC[C@]12C | Active | – | – |
| C=C(/C=C/[C@@H](C)[C@H]1CC[C@H]2[C@@H]3[C@@H](OC(C)=O)C=C4C[C@@H](O)CC[C@]4(CO)[C@H]3CC[C@]12C)C(C)C | inactive | Non-Toxic | – |
| C=C(/C=C/[C@@H](C)[C@H]1CC[C@@H]2[C@]1(C)C[C@H](O)[C@@H]1[C@@]3(C)C[C@H](O)[C@H](O)[C@@H](C)[C@@H]3CC(=O)[C@@]21O)C(C)C | inactive | Non-Toxic | – |
| C=C(CC[C@@H](C)[C@H]1CC[C@H]2[C@@H]3[C@@H](OC(C)=O)C=C4C[C@@H](O)CC[C@]4(CO)[C@H]3CC[C@]12C)C(C)C | inactive | Non-Toxic | – |
| C=C(/C=C/[C@@H](C)[C@H]1CC[C@H]2[C@@H]3C(=O)[C@H]4O[C@]45C[C@@H](O)CC[C@]5(COC(C)=O)[C@H]3CC[C@]12C)C(C)C | inactive | Non-Toxic | – |
| C=C(CC[C@@H](C)[C@H]1CC[C@H]2[C@@H]3[C@@H](O)C=C4C[C@@H](O)CC[C@]4(C)[C@H]3CC[C@]12C)C(C)C | inactive | Non-Toxic | – |
| C=C(CC[C@@H](C)[C@H]1CC[C@H]2[C@@H]3C(=O)[C@H]4O[C@]45C[C@@H](O)CC[C@]5(COC(C)=O)[C@H]3CC[C@]12C)C(C)C | inactive | Non-Toxic | – |
| CC(C)(C)c1cc(O)ccc1O | – | – | Activity (PC-12 [3]): Active; Activity (PC-12 [4]): Active; inhibition (PC-12 [5]): Active; Activity (PC-12 [6]): Active; inhibition [7]: Active |
| C=C(CC[C@@H](C)[C@H]1CC[C@H]2[C@@H]3C(=O)[C@H]4O[C@]45C[C@@H](O)CC[C@]5(COC(C)=O)[C@H]3[C@H](OC(C)=O)C[C@]12C)C(C)C | inactive | Non-Toxic | – |
| C=C(CC[C@@H](C)[C@H]1CC[C@H]2[C@@H]3CC=C4C[C@@H](O)CC[C@]4(CO)[C@H]3CC[C@]12C)C(C)C | inactive | Non-Toxic | – |
| CC(C)CCC[C@@H](C)[C@H]1CC[C@H]2[C@@H]3[C@H](O)CC4=CC(=O)CC[C@]4(C)[C@H]3CC[C@]12C | Active | – | – |
| C=C(CC[C@@H](C)[C@H]1CC[C@@H]2[C@]1(C)C[C@H](O)[C@@H]1[C@@]3(C)C[C@H](O)[C@H](O)[C@@H](C)[C@@H]3CC(=O)[C@@]21O)C(C)C | inactive | Non-Toxic | – |
| CC(=O)O[C@H]1C=C2C[C@@H](O)CC[C@]2(CO)[C@H]2CC[C@]3(C)[C@@H]([C@H](C)/C=C/CC(C)C)CC[C@H]3[C@H]12 | inactive | Non-Toxic | – |
| C=C(/C=C/[C@@H](C)[C@H]1CC[C@@H]2[C@]1(C)C[C@H](O)[C@@H]1[C@@]3(C)C[C@H](O)[C@H](OC(C)=O)[C@@H](C)[C@@H]3CC(=O)[C@@]21O)C(C)C | inactive | Non-Toxic | – |
| C=C(CC[C@@H](C)[C@H]1CC[C@H]2[C@@H]3C(=O)C=C4C[C@@H](O)CC[C@]4(COC(C)=O)[C@H]3CC[C@]12C)C(C)C | – | Non-Toxic | Activity (PC-12 [8]): 70%; Activity (PC-12 [3]): Active; Activity (PC-12 [9]): Active; Activity (PC-12 [10]): Dose-dependent effect; inhibition (PC-12 [11]): Dose-dependent effect; Activity (PC-12 [12]): Dose-dependent effect; inhibition [13]: Active; inhibition [14]: Dose-dependent effect; Activity (PC-12 [15]): Active; Activity (PC-12 [16]): Active; Activity (PC-12 [17]): inactive; Activity (PC-12 [18]): inactive |
| C=C(CC[C@@H](C)[C@H]1CC[C@H]2[C@@H]3C(=O)[C@H]4O[C@]45C[C@@H](O)CC[C@]5(CO)[C@H]3CC[C@]12C)C(C)C | inactive | Non-Toxic | – |
| CC(=O)O[C@H]1C=C2C[C@@H](O)CC[C@]2(CO)[C@H]2CC[C@]3(C)[C@@H]([C@H](C)CCCC(C)C)CC[C@H]3[C@H]12 | inactive | Non-Toxic | – |
| C=C(CC[C@@H](C)[C@H]1CC[C@H]2[C@@H]3[C@H](O)C=C4C[C@@H](O)CC[C@]4(COC(C)=O)[C@H]3CC[C@]12C)C(C)C | – | Non-Toxic | Activity (PC-12 [8]): 70%; Activity (PC-12 [3]): inactive |
